In article PMC12519992 (2025):

Columns and labels:
[1] = tested on: dsDNA (dual-labeled) (DNA, duplex) CAATCGGATCGAATTCGATCCGATTG; assay: FRET melting; details: K+ 60 mM; 60 mM K-cacodylate (table note: Tris-HCl/KCl), pH 7.4; 1 µM compound
[2] = tested on: BCL2 (DNA, G4) GGGCGCGGGAGGAATTGGGCGGG; assay: fluorescence titration of ligand, Hill fit; details: K+; 100 mM Tris-KCl, pH 7.4, 25 °C; excitation 300 nm
[3] = tested on: BCL2 (DNA, G4) GGGCGCGGGAGGAATTGGGCGGG; assay: ITC; details: K+ 100 mM; 100 mM Tris, 100 mM KCl, pH 7.4; 5 µM DNA, 50 µM ligand
[4] = tested on: KRAS (DNA, G4) AGGGCGGTGTGGGAAGAGGGAAGAGGGGGAGG; assay: ITC; details: K+ 100 mM; 100 mM Tris, 100 mM KCl, pH 7.4; 5 µM DNA, 50 µM ligand
[5] = tested on: c-KIT1 (DNA, G4) GGGAGGGCGCTGGGAGGGAGGG; assay: fluorescence titration of ligand, Hill fit; details: K+; 100 mM Tris-KCl, pH 7.4, 25 °C; excitation 300 nm
[6] = tested on: c-KIT2 (DNA, G4) GGGCGGGCGCGAGGGAGGGG; assay: fluorescence titration of ligand, Hill fit; details: K+; 100 mM Tris-KCl, pH 7.4, 25 °C; excitation 300 nm
[7] = tested on: dsDNA (DNA, duplex) CAATCGGATCGAATTCGATCCGATTG; assay: fluorescence titration of ligand, Hill fit; details: K+; 100 mM Tris-KCl, pH 7.4, 25 °C; main text: no substantial spectral change with dsDNA, ITC negligible
[8] = tested on: c-KIT1 (DNA, G4) GGGAGGGCGCTGGGAGGGAGGG; assay: ITC; details: K+ 100 mM; 100 mM Tris, 100 mM KCl, pH 7.4; main text prints ~3.3 µM
[9] = tested on: c-MYC27 (DNA, G4) TGAGGGTGGGTAGGGTGGGTAA; assay: fluorescence titration of ligand, Hill fit; details: K+; 100 mM Tris-KCl, pH 7.4, 25 °C; excitation 300 nm
[10] = tested on: KRAS (DNA, G4) AGGGCGGTGTGGGAAGAGGGAAGAGGGGGAGG; assay: fluorescence titration of ligand, Hill fit; details: K+; 100 mM Tris-KCl, pH 7.4, 25 °C; excitation 300 nm
[11] = tested on: VEGF (DNA, G4) CGGGGCGGGCCGGGGGCGGGGT; assay: ITC; details: K+ 100 mM; 100 mM Tris, 100 mM KCl, pH 7.4; 5 µM DNA, 50 µM ligand
[12] = tested on: c-KIT2 (DNA, G4) GGGCGGGCGCGAGGGAGGGG; assay: ITC; details: K+ 100 mM; 100 mM Tris, 100 mM KCl, pH 7.4; main text prints ~2.6 µM
[13] = tested on: c-MYC27 (DNA, G4) TGAGGGTGGGTAGGGTGGGTAA; assay: ITC; details: K+ 100 mM; 100 mM Tris, 100 mM KCl, pH 7.4; 5 µM DNA, 50 µM ligand

Structure (SMILES)	ΔTm [1]	Kd [2]	KD [2]	KD [3]	KD [4]	KD [5]	KD [6]	KD [7]	KD [8]	KD [9]	Kd [10]	KD [11]	KD [12]	KD [13]
C[n+]1cc(NC(=O)c2ccc3ccc4ccc(C(=O)Nc5cc6ccccc6[n+](C)c5)nc4c3n2)cc2ccccc21	0.01 °C													
Nc1nc(C(=O)Nc2ccc(-n3cc(CNC(=O)c4csc(NC(=O)c5csc(N)n5)n4)nn3)cc2)cs1		1.8 µM												
Nc1nc(C(=O)Nc2nc(C(=O)NCc3cn(-c4ccc(NC(=O)[C@@H]5CCCN5)cc4)nn3)cs2)cs1	0.07 °C		1.5 µM	3 ± 0.1 µM	0.53 ± 0.25 µM	2 µM	1.5 µM	2.2 µM	2.2 ± 1 µM	2.5 µM	0.8 µM	17.7 ± 4 µM	3.7 ± 0.3 µM	2.28 ± 0.74 µM
